Experimental findings from patent publication US4314028A, “Fermentation process for producing tallysomycin compounds” (priority 1980, dated 1982) are described below.

The subject of series [1] is Aspergillus fumigatus IAM 2593. As to the kind of experiment: MIC, two-fold agar dilution method. The format is cell-based. To be noted: Sabouraud agar. On the procedure:
(§1) The minimum inhibitory concentrations (MIC) of the semibiosynthetic tallysomycin derivatives of the present invention were determined against fungi and gram-positive, gram-negative and acid-fast bacteria by the two-fold agar dilution method. Nutrient agar was used for bacteria and Sabouraud agar for fungi. The results are shown in the table below comparatively with tallysomycin A and B.
In general terms: In agar dilution, organisms are placed on agar that contains the substance at set levels.

The test system of series [2] is Bacillus subtilis PCI 219. Description: MIC, two-fold agar dilution method. It counts as cell-based. As to conditions: nutrient agar. On the procedure: as §1
In series [3] the test system is Candida albicans IAM 4888. As to the kind of experiment: MIC, two-fold agar dilution method. It counts as cell-based. To be noted: Sabouraud agar. On the procedure: as §1
A further series deals with Escherichia coli NIHJ. Description: MIC, two-fold agar dilution method. It counts as cell-based. As to conditions: nutrient agar. As to the method: as §1
The subject of a further series is Mycobacterium 607. Description: MIC, two-fold agar dilution method. It counts as cell-based. To be noted: nutrient agar. On the procedure:
as §1

The next series relates to Proteus mirabilis A9554. As to the kind of experiment: MIC, two-fold agar dilution method. As to conditions: nutrient agar. It counts as cell-based. As to the method: as §1
For a further series, the system named is Sarcina lutea PCI1001. Description: MIC, two-fold agar dilution method. It counts as cell-based. As to conditions: nutrient agar. On the procedure: as §1
Series [4] has as its system Staphylococcus aureus Smith. Description: MIC, two-fold agar dilution method. It counts as cell-based. To be noted: nutrient agar. On the procedure:
as §1

Series [5] has as its system Mycobacterium smegmatis strain M6-3. As to the kind of experiment: Relative antibacterial potency, paper-disc agar diffusion method. The format is cell-based. To be noted: relative to tallysomycin A standard=1000 mcg/mg. As to the method: The relative antibacterial potencies (tallysomycin A standard=1000 mcg/mg) of the tallysomycin derivatives were determined by the paper-disc agar diffusion method using Mycobacterium smegmatis strain M6-3 as the assay organism.

Series [6] concerns lysogenic bacterium E. coli W1709 (λ). As to the kind of experiment: Prophage induction of lysogenic bacterium (ILB activity). The format is cell-based. As to conditions: t/c ratio of plaque counts greater than 3.0. On the procedure:
The activity of prophage induction of lysogenic bacterium E. coli W1709 (λ) was determined according to the method disclosed by Lein et al. in Nature 196: 783-784 (1962). The plaque count was made on the agar plate containing test compound (t) and control plate (c). A t/c ratio of the plaque counts of greater than 3.0 was defined to be a significant level and lysogenic induction activity (ILB activity) was expressed by the minimum inducible concentration of the test compound.

In series [7] the test system is Lymphocytic leukemia P388. As to the kind of experiment: animal or person. It counts as in vivo, BDF1 mice. To be noted: copper-chelated form unless otherwise stated; for Antitumor activity P388 (ED125): ip, once daily 9 days, dose giving T/C survival of 125%; for Antitumor therapeutic index P388: single dose LD50/ED125. From the text: (§2) The antitumor activity of the tallysomycin derivatives was examined in four experimental tumor systems in mice. Lymphocytic leukemia P388 and Lewis lung carcinoma were implanted intraperitoneally into BDF1 mice of either sex at an inoculum size of 3×10^5 and 5×10^5 cells per mouse, respectively. Sarcoma 180 ascites tumor was inoculated intraperitoneally into male dd-strain mice with […] per mouse. Melanotic melanoma B16 was implanted subcutaneously into BDF1 mice with 5×10^5 cells per mouse. Twenty-four hours after the implantation of tumor cells, graded doses of test compounds were administered to mice intraperitoneally in an injection volume of 0.2 ml. per 10 grams of body weight. Test compounds were given once daily for 9 days (qd 1→9 schedule) except for the mice inoculated with Lewis lung carcinoma which were treated for 11 days (qd 1→11). Death or survival of the treated and non-treated (control) animals was recorded daily during the observation period of 45 days after the implantation of tumor cells, and the median survival time was calculated for each of the test (T) and control (C) groups. […] The actual dose giving a T/C of 125% was estimated by linear regression analysis and defined as the effective dose 125 or ED125. The effective dose 150 (ED150) was employed for the evaluation of antitumor effect against Sarcoma 180. In the B16 melanoma experiment the tumor size was measured on day 16 after tumor inoculation, and the dose giving 50% inhibition of tumor growth (ID50) was calculated from regression lines.
(§3) The antitumor therapeutic index was calculated for each derivative from the ratio of toxicity and antitumor activity.

Another series deals with Sarcoma 180. Description: animal or person. The format is in vivo, dd-strain mice. To be noted: copper-chelated form unless otherwise stated.
Text: as §2, §3

In a further series the test system is Melanotic melanoma B16. Description: Antitumor activity in mice, melanotic melanoma B16. It counts as in vivo, BDF1 mice. As to conditions: copper-chelated form unless otherwise stated.
Text: as §2, §3

Series [8] in a line: Acute toxicity, single dose LD50. It counts as in vivo, dd mice. As to conditions: ip, 30 days observation, copper-chelated form unless otherwise stated. As to the method:
Graded doses of test compounds were administered intraperitoneally to groups of dd mice. The injection was given one time only or once daily for 9 consecutive days. Death or survival of the animals was recorded for 30 days after the last dose of test compound to calculate the single or multiple median lethal dose (LD50).

As for `Cc1c(N)nc([C@H](CC(N)=O)NC[C@H](N)C(N)=O)nc1C(=O)N[C@H](C(=O)N[C@H](C)[C@@H](O)CC(=O)N[C@H](C(=O)NC(O[C@@H]1O[C@@H](C)[C@@H](N)[C@@H](O)[C@H]1O)C(O)c1nc(-c2nc(C(=O)NCCCC(N)CC(=O)NCCCNCCCCN)cs2)cs1)[C@@H](C)O)[C@H](O[C@@H]1O[C@@H](CO)[C@@H](O)[C@H](O)[C@@H]1O[C@H]1O[C@H](CO)[C@@H](O)[C@H](OC(N)=O)[C@@H]1O)c1c[nH]cn1` (stereo partly drawn) [Tallysomycin A, reference compound], the “minimum inhibitory concentration (MIC)” value is 1.6 in series [1]; under 0.003 in [2]; 12.5 in series [3]; 0.05 in the series with Escherichia coli NIHJ; 0.2 in the series on Mycobacterium 607; 0.4 with Proteus mirabilis A9554. Further, the “minimum inhibitory concentration (MIC)” value in the series with Sarcina lutea PCI1001 is 0.05; in series [4] it was 0.1. Also, the Antibacterial potency in series [5] is listed as 1,000 μ/mg. Also, in series [6], the “ILB activity (minimum inducible concentration)” value (shortened to “ILB activity”) was 0.00125 µg/mL.
Consider `Cc1c(N)nc([C@H](CC(N)=O)NC[C@@H](N)C(N)=O)nc1C(=O)N[C@H](C(=O)N[C@H](C)[C@@H](O)CC(=O)N[C@@H](C(=O)NC(O[C@@H]1O[C@@H](C)[C@@H](N)[C@@H](O)[C@H]1O)C(O)c1nc(-c2nc(C(=O)NCCCNCCCCN)cs2)cs1)[C@@H](C)O)C(O[C@@H]1O[C@@H](CO)[C@H](O)[C@@H](O)[C@@H]1O[C@H]1O[C@H](CO)[C@@H](O)[C@@H](OC(N)=O)[C@@H]1O)c1cnc[nH]1` (stereo partly drawn) [Tallysomycin B, reference compound], for which the “minimum inhibitory concentration (MIC)” value in series [1] is reported as 0.8; in [2], 0.006; in series [3], 6.3; in the series on Escherichia coli NIHJ, 0.2; in the series on Mycobacterium 607, 0.2; in the series with Proteus mirabilis A9554 it was 0.2. The “minimum inhibitory concentration (MIC)” value (in the series with Sarcina lutea PCI1001; in [4]) was 0.4 each time. The Antibacterial potency in series [5] was 900 μ/mg. Further, the “ILB activity” value in series [6] was determined as 0.01 µg/mL.
Turning to `Cc1c(N)nc(C(CC(N)=O)NCC(N)C(N)=O)nc1C(=O)NC(C(=O)NC(C)C(O)CC(=O)NC(C(=O)NC(OC1OC(C)C(N)C(O)C1O)C(O)c1nc(-c2nc(C(=O)NCC(O)CN)cs2)cs1)C(C)O)C(OC1OC(CO)C(O)C(O)C1OC1OC(CO)C(O)C(OC(N)=O)C1O)c1c[nH]cn1` (stereo not drawn) [Tallysomycin S4b], the “minimum inhibitory concentration (MIC)” value came out at 0.8 in series [1]; 0.006 in series [2]; 25 in series [3]; 0.4 with Escherichia coli NIHJ; 0.003 in the series on Mycobacterium 607; 0.4 in the series on Proteus mirabilis A9554. The results for the “minimum inhibitory concentration (MIC)” value (with Sarcina lutea PCI1001; in [4]) were 3.1 and 0.8, respectively. The molecule also had an Antibacterial potency in series [5] of 405 μ/mg. In addition, the “Antitumor activity P388 (ED125)” value in [7] is recorded as over 3.0 mg/kg/day. In addition, the “Antitumor therapeutic index P388” value in series [7] is reported as under 4. In addition, the “Antitumor activity S180 (ED150)” value with Sarcoma 180 (ip, once daily 9 days, effective dose 150, survival) is listed as 0.13 mg/kg/day. Also, the “Antitumor therapeutic index S180” value with Sarcoma 180 (single dose LD50/ED150) amounted to 100. For the same molecule, the “Antitumor activity B16 (ID50)” value with Melanotic melanoma B16 (ip, once daily 9 days, 50% inhibition of tumor growth, day 16, 23040 min) was found to be 0.50 mg/kg/day. Moreover, the “Antitumor therapeutic index B16” value in the series on Melanotic melanoma B16 (single dose LD50/ID50) was found to be 26. The molecule further showed an LD50 single dose in series [8] of 13 mg/kg/day.
Regarding `Cc1c(N)nc(C(CC(N)=O)NCC(N)C(N)=O)nc1C(=O)NC(C(=O)NC(C)C(O)CC(=O)NC(C(=O)NC(OC1OC(C)C(N)C(O)C1O)C(O)c1nc(-c2nc(C(=O)NCCCC(N)CC(=O)NCCCN(CCO)CCO)cs2)cs1)C(C)O)C(OC1OC(CO)C(O)C(O)C1OC1OC(CO)C(O)C(OC(N)=O)C1O)c1c[nH]cn1` (stereo not drawn) [Tallysomycin S8a], the “minimum inhibitory concentration (MIC)” value in [1] was determined as 0.8; in [2] it was 0.006; in [3], 12.5; in the series with Escherichia coli NIHJ, 0.1; in the series on Mycobacterium 607, 0.1; in the series with Proteus mirabilis A9554, 0.4. Moreover, the entries for the “minimum inhibitory concentration (MIC)” value (in the series on Sarcina lutea PCI1001; in [4]) were 0.4 and 0.2, respectively. The Antibacterial potency in series [5] is given as 550 μ/mg. The “ILB activity” value in series [6] was 0.005 µg/mL. Moreover, the “Antitumor activity P388 (ED125)” value in [7] is 0.78 mg/kg/day. For the same molecule, in series [7], the “Antitumor therapeutic index P388” value amounted to 54. The same molecule yielded an LD50 single dose in series [8] of 42 mg/kg/day.
Turning to `CNCCCNC(=O)CC(N)CCCNC(=O)c1csc(-c2csc(C(O)C(NC(=O)C(NC(=O)CC(O)C(C)NC(=O)C(NC(=O)c3nc(C(CC(N)=O)NCC(N)C(N)=O)nc(N)c3C)C(OC3OC(CO)C(O)C(O)C3OC3OC(CO)C(O)C(OC(N)=O)C3O)c3c[nH]cn3)C(C)O)OC3OC(C)C(N)C(O)C3O)n2)n1` (stereo not drawn) [Tallysomycin S11a], the “minimum inhibitory concentration (MIC)” value in [1] was determined as 0.8; in series [2] it was 0.025; in [3], 1.6; in the series on Escherichia coli NIHJ it was 0.1; in the series with Mycobacterium 607 it was 0.1; in the series on Proteus mirabilis A9554, 0.2. The “minimum inhibitory concentration (MIC)” value in the series on Sarcina lutea PCI1001 was 0.2; in series [4], 0.8. Also, in [5], the Antibacterial potency is given as 570 μ/mg. Further, the “ILB activity” value in [6] amounted to 0.08 µg/mL. In addition, the “Antitumor activity P388 (ED125)” value in series [7] is listed as 0.60 mg/kg/day. Further, the “Antitumor therapeutic index P388” value in series [7] is given as 30. Besides, the LD50 single dose in [8] is on record as 18 mg/kg/day.
Take `Cc1c(N)nc(C(CC(N)=O)NCC(N)C(N)=O)nc1C(=O)NC(C(=O)NC(C)C(O)CC(=O)NC(C(=O)NC(OC1OC(C)C(N)C(O)C1O)C(O)c1nc(-c2nc(C(=O)NCCCC(N)CC(=O)NCCCNC(C)c3ccccc3)cs2)cs1)C(C)O)C(OC1OC(CO)C(O)C(O)C1OC1OC(CO)C(O)C(OC(N)=O)C1O)c1c[nH]cn1` (stereo not drawn) [Tallysomycin S14a]: the “minimum inhibitory concentration (MIC)” value was 3.1 in series [1]; 0.1 in series [2]; 50 in [3]; 0.2 with Escherichia coli NIHJ; 0.1 with Mycobacterium 607; 3.1 with Proteus mirabilis A9554. Besides, the “minimum inhibitory concentration (MIC)” value (in the series with Sarcina lutea PCI1001; in [4]) was 0.8 in each case. Also, the Antibacterial potency in series [5] was 1,300 μ/mg. Also, the “ILB activity” value in [6] amounted to 0.01 µg/mL.
